Numbers after ± are expanded uncertainties.
Assays:
[1] = xn = mol fraction of the nth substance listed; conditions: 298.2 K, 101 kPa, Liquid; for viscosity: Capillary tube (Ostwald / Ubbelohde) method; for mass density: Pycnometric method; for electrical conductivity: conductivity meter
[2] = Crystal; DTA

Row | Compound | viscosity ([1]; x1 = 0.6667) [mPa·s] | viscosity ([1]; x1 = 0.75) [mPa·s] | viscosity ([1]; x1 = 0.7963) [mPa·s] | viscosity ([1]; x1 = 0.8333) [mPa·s] | viscosity ([1]; x1 = 0.8571) [mPa·s] | mass density ([1]; x1 = 0.6667) [kg/m3] | mass density ([1]; x1 = 0.75) [kg/m3] | mass density ([1]; x1 = 0.7963) [kg/m3] | mass density ([1]; x1 = 0.8333) [kg/m3] | mass density ([1]; x1 = 0.8571) [kg/m3] | electrical conductivity ([1]; x1 = 0.6667) [S/m] | electrical conductivity ([1]; x1 = 0.75) [S/m] | electrical conductivity ([1]; x1 = 0.7963) [S/m] | electrical conductivity ([1]; x1 = 0.8333) [S/m] | electrical conductivity ([1]; x1 = 0.8571) [S/m] | Normal melting temperature [2] [°C]
1 | Cc1ccccc1O [2-methylphenol] + C[N+](C)(C)CCO.[Cl-] | 207.41 ± 12 | 77.65 ± 4 | 46.95 ± 2 | 34.9 ± 1.4 | 27.82 ± 1.1 | 1077.6 ± 1.2 | 1070.7 ± 1.2 | 1066.4 ± 1.2 | 1063.1 ± 1.2 | 1060.6 ± 1.2 | 0.083 ± 0.001 | 0.121 ± 0.002 | 0.141 ± 0.002 | 0.145 ± 0.002 | 0.138 ± 0.002 | –
2 | C[N+](C)(C)CCO.[Cl-] [choline chloride] | – | – | – | – | – | – | – | – | – | – | – | – | – | – | – | 304.1 ± 0.5

From the NIST ThermoML archive (doi:10.1021/je300997v)
